Laboratory results: patent US9125861B2, “PAR2 agonists for use in the treatment or prevention of influenza virus type A infections” (Institut National de la Sante et de la Recherche Medicale …, priority 2009, dated 2015)
Ends that are not written are not given here.

What was measured:
[1] = tested on: IAV A/PR/8/34; set-up: species or system C57BL/6 mice; settings: mouse, in vivo
[2] = tested on: IAV A/PR/8/34; set-up: species or system C57BL/6 mice; settings: mouse, in vivo; remark: listed apart in the source
[3] = tested on: IFN-γ; set-up: species or system C57BL/6 mice; settings: mouse, in vivo
[4] = target: T1, PAR2 (Homo sapiens, UniProt P55085); assay: Flow cytometry of PAR2 expression in A549 cells after PAR2 stimulation; format: cell-based; settings: 250 μM peptide, 24 hours post-stimulation, permeabilized cells
T1 construct: endogenous in cells; host or cells: A549 (human alveolar type II epithelial cell line, ATCC)
T1 sequence (P55085 26-397): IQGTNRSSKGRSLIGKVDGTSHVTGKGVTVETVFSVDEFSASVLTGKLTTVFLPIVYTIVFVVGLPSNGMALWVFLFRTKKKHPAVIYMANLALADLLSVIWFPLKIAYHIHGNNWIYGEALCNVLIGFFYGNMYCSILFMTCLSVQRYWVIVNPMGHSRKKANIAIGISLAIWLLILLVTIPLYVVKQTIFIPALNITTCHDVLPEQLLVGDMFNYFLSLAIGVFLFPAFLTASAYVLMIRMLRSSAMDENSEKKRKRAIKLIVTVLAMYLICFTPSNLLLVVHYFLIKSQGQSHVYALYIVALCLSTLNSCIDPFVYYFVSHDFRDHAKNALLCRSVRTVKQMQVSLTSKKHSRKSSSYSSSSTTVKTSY
Procedure: A549 cells were infected or not at a MOI of 0.001 for 24 hours and flow cytometry experiments were done on permeabilized cells, as previously described (Riteau B. et al. 2001; Riteau B. et al. 2001), using the SAM11 anti-PAR2 antibody (Santa-cruz biotechnology, Inc, USA). PAR2 stimulation of A549 cells was performed using 250 μM of PAR2 specific activating peptide SLIGRL-NH2 and flow cytometry experiment was performed 24 hours post-stimulation.

[5] = tested on: IAV A/PR/8/34 (H1N1); format: cell-based, influenza virus type A
[6] = tested on: RANTES; format: cell-based, human
[7] = tested on: IFN-γ; format: cell-based, human
[8] = tested on: IAV A/PR/8/34; set-up: species or system C57BL/6 mice; settings: mouse, in vivo; remark: listed apart in the source
[9] = tested on: neutrophils; set-up: species or system C57BL/6 mice; settings: mouse, in vivo
[10] = tested on: RANTES; set-up: species or system C57BL/6 mice; settings: mouse, in vivo
[11] = tested on: IAV A/PR/8/34; assay: Survival and weight loss of IAV-infected IFN-γ-deficient mice treated with peptide; settings: 50 000 pfu/mice
Description: Six-weeks-old IFN-γ-deficient mice (background C57BL/6, n=36) obtained from the INRA “Experimental Infectiology Platform” of Tours (France) were anaesthetized once and infected intranasally with 50 000 pfu of A/PR/8/34 in the presence or absence of SLIGRL-NH2. C57BL/6J/WT mice (n=20) were used as control. Infected mice were then monitored daily for survival.

LRGILS-NH2 [reference compound]
survival rate [1]: had no effect
overall appearance of lungs (photographic pictures) [2]: severely injured
IFN-γ release in BAL after IAV infection [3]: No significant increase

SLIGRL-NH2
effect on PAR2 synthesis [4]: had no effect
inhibition of IAV replication in the presence of anti-IFNγ neutralizing antibody [5]: could be reversed
virus production [5]: produced less virus
RANTES level [6]: at the limit of detection
RANTES production [6]: significantly inhibited
IFN-γ level [7]: at the limit of detection
IFN-γ release [7]: induced IFN-γ release
time of peak IFN-γ release [7]: 8 hours post-infection
protection stable, inhibiting mortality until [1]: ≥ 12 days
survival rate [1]: protected mice from death, in a dose-dependent manner
decreased infectious virus load in lungs at lower doses of IAV infection [8]: also observed
infectious virus load in lungs [8]: significantly decreased
histopathologic examination of the lungs [2]: lack evidence of pathology
influx of neutrophils in BAL [9]: significantly decreased
number of neutrophils in BAL at 48-hours compared to level at 24-hours [9]: significantly increased
IAV-induced increase of RANTES in BAL [10]: significantly inhibited
release of RANTES in BAL [10]: three-fold increase
IFN-γ release in BAL after IAV infection [3]: significant increase
release of IFN-γ in BAL [3]: no effect
kinetic of weight loss after IAV infection [11]: did not modify
protection from death [11]: did not protect mice from death
